Test results from PMC6150365, “Simultaneous Determination of Seven Components in Rat Plasma by the UPLC-MS/MS Method and Application of Pharmacokinetic Studies to SimiaoYong’an Decoction” (Molecules : A Journal of Synthetic Chemistry and Natural …, 2017).

Assay: Pharmacokinetic study in rats after oral administration of SYD extract and its single and combined TCM extracts (UPLC-MS/MS of plasma)
Settings: male, Sprague-Dawley, rat, plasma, po, n = 6; for AUC(0-t) / AUC(0-inf) / Cmax / MRT last / MRT inf / Tmax: rat plasma; for MRT last: MRT(0–t); for MRT inf: MRT(0–∞); for half-life: t1/2, rat plasma
[1] = 1.29 g/kg, oral AS extract 1.29 g/kg
[2] = 2.14 g·kg^−1 (extract), oral LJ + GU extract
[3] = 2.15 g/kg, oral LJ extract 2.15 g/kg
[4] = 2.43 g/kg, oral AS + GU extract 2.43 g/kg
[5] = 3.29 g·kg^−1 (extract), oral LJ + AS extract
[6] = 3.29 g·kg^−1 extract, oral LJ + AS extract
[7] = 4.5 g·kg^−1 (extract), oral LJ + SN extract
[8] = 4.5 g·kg^−1 extract, oral LJ + SN extract
[9] = 4.73 g/kg, oral LJ + SN + GU extract 4.73 g/kg
[10] = 5.43 g/kg, oral LJ + SN + AS extract 5.43 g/kg
[11] = 8.25 g/kg, oral SYD extract 8.25 g/kg

Method: Pieces of LJ, SN, AS and GU were weighed according to the proportion of 3:3:2:1 with appropriate amounts. The mixed pieces were crushed and decocted two times (60 min each time) with water (1:10 w/v) after being soaked for 60 min. The decoctions were then combined and condensed to the concentration of 0.5 g/mL, after which 95% ethanol was slowly added to the concentrate until a final ethanol concentration of 70% was reached. The SYD solution was set at room temperature overnight and then was filtered. The solvent was recovered, and the residue was dried under reduced pressure. A certain amount of the water extract of SYD was weighed and then dissolved with purified water for intragastric (oral) administration solution. The single herbs and different combination groups such as LJ, SN, AS, GU, LJ + SN, LJ + AS, LJ + GU, SN + AS, SN + GU, AS + GU, LJ + SN + AS, LJ + SN + GU, LJ + AS + GU and SN + AS + GU were prepared according to the procedure of SYD.
Male Sprague-Dawley (SD) rats (body weight 250 ± 10 g) were supplied by the SPF (Beijing) Biotechnology Co., Ltd. (Certificate No.: SCXK 2016-0002, Beijing, China). The animals were maintained in controlled conditions (temperature 20–25 °C, relative humidity 55–60% and 12-h light/12-h dark cycle) with free access to standard laboratory food and water for seven days of acclimation and then fasted for 12 h before each experiment but allowed to drink freely during this time.
Ninety male SD rats were randomly separated into 15 groups and administered a dosage of extract via gastric gavage once per day; detailed information about the oral daily dose of SYD extract and the corresponding single and combined TCMs (LJ, SN, AS, GU, LJ + SN, LJ + AS, LJ + GU, SN + AS, SN + GU, AS + GU, LJ + SN + AS, LJ + SN + GU, LJ + AS + GU, SN + AS + GU and SYD) is listed in Table 4.
Each plasma sample (200 μL) with 50 μL IS solution added was spiked into 100 μL 1% formic acid distilled water solution and then vortexed for 1 min. Protein was precipitated by adding 600 μL of methanol to the mixture. After being vortexed and sonicated, the samples were centrifuged at 25,000 r/min, 4 °C for 10 min. The supernatant of each sample was transferred to a new 2-mL centrifuge tube and evaporated to dryness by N2 at 40 °C. Finally, the residue was dissolved in 100 μL methanol–water (1:1, v/v), followed by centrifugation at 30,000 r/min, 4 °C for 10 min, and 10-μL supernatant aliquots were injected into the UPLC-MS/MS system for analysis.
The SYD was decomposed into 15 groups of compatibility combinations (LJ, SN, AS, GU, LJ + SN, LJ + AS, LJ + GU, SN + AS, SN + GU, AS + GU, LJ + SN + AS, LJ + SN + GU, LJ + AS + GU, SN + AS + GU and SYD). The 15 combinations were weighed according to the proportion of 3:3:2:1 with appropriate amounts and prepared by the method described in “Section 3.2”. Six male SD rats (body weight 250 ± 10 g) of each compatibility group were used in the pharmacokinetic study. After 12-h fast, rats of the different groups were orally administered the respective extract dissolved in saline (Table 4). Venous blood (0.45 mL) was obtained from the orbit vein and collected in heparin-pretreated polypropylene centrifuge tubes at 0.083 h, 0.17 h, 0.25 h, 0.50 h, 0.75 h, 1.0 h, 1.5 h, 2.0 h, 3.0 h, 4.0 h, 6.0 h, 8.0, 12 h and 24 h post-dose. The plasma was separated by centrifugation at 8000 r/min for 10 min and then stored at −20 °C until analysis. The amount of each analyte in the plasma was estimated by UPLC-MS/MS analysis as described in Section 3.5.
Non-compartmental methods using Phoenix WinNonlin 7.0 software provided by the Beijing University of Chinese Medicine were used to analyze plasma concentration versus time profiles and to estimate the following pharmacokinetic parameters: terminal elimination half-lives (t1/2), area under the plasma concentration versus time curve from zero to last sampling time (AUC), and the mean residence time (MRT).

## O=C(/C=C/c1ccc(O)c(O)c1)O[C@@H]1C[C@](O)(C(=O)O)C[C@@H](O)[C@H]1O [Chlorogenic acid, chlorogenic acid]
[1]
  AUC(0-t): 1360 ± 120 ng·h/mL
  AUC(0-inf): 2130 ± 670 ng·h/mL
  Cmax: 390 ± 110 ng/mL
  MRT last: 1.56 ± 0.67 h
  MRT inf: 4.28 ± 2.23 h
  Tmax: 0.89 ± 0.33 h
  half-life: 3.54 ± 0.98 h
[2]
  AUC(0-inf): 2930 ± 1000 ng·h/mL
  Cmax: 1070 ± 190 ng/mL
  MRT last: 3.85 ± 0.88 h
  MRT inf: 65 ± 64.6 h
  Tmax: 1.18 ± 0.78 h
  half-life: 8.15 ± 2.49 h
2.14 g·kg^−1 extract, oral LJ + GU extract
  AUC(0-t): 1780 ± 290 ng·h/mL
[3]
  AUC(0-t): 3940 ± 2120 ng·h/mL
  AUC(0-inf): 5040 ± 2980 ng·h/mL
  Cmax: 2410 ± 830 ng/mL
  MRT last: 3.12 ± 0.75 h
  MRT inf: 24.7 ± 8.81 h
  Tmax: 1.11 ± 0.74 h
  half-life: 9.39 ± 2.87 h
[4]
  AUC(0-t): 1150 ± 340 ng·h/mL
  AUC(0-inf): 1980 ± 450 ng·h/mL
  Cmax: 290 ± 210 ng/mL
  MRT last: 1.78 ± 0.39 h
  MRT inf: 3.36 ± 2 h
  Tmax: 0.55 ± 0.48 h
  half-life: 2.78 ± 0.53 h
[5]
  Cmax: 1670 ± 480 ng/mL
  MRT last: 3.17 ± 0.75 h
  MRT inf: 37.6 ± 36.1 h
  Tmax: 1.36 ± 0.69 h
  half-life: 7.14 ± 1.59 h
[6]
  AUC(0-t): 2820 ± 750 ng·h/mL
  AUC(0-inf): 3770 ± 1220 ng·h/mL
[7]
  MRT last: 3.48 ± 0.86 h
  MRT inf: 46.8 ± 43.4 h
  Tmax: 1.36 ± 1.03 h
  half-life: 7.82 ± 2.6 h
[8]
  AUC(0-t): 2800 ± 1160 ng·h/mL
  AUC(0-inf): 4250 ± 2310 ng·h/mL
  Cmax: 1740 ± 750 ng/mL
[9]
  AUC(0-t): 2190 ± 480 ng·h/mL
  AUC(0-inf): 3410 ± 640 ng·h/mL
  Cmax: 1280 ± 510 ng/mL
  MRT last: 3.44 ± 0.29 h
  MRT inf: 69.3 ± 73.6 h
  half-life: 8.34 ± 1.07 h
[10]
  AUC(0-t): 2550 ± 640 ng·h/mL
  AUC(0-inf): 3690 ± 490 ng·h/mL
  Cmax: 1380 ± 370 ng/mL
  MRT last: 3.19 ± 0.32 h
  MRT inf: 59.5 ± 63.2 h
  half-life: 6.73 ± 1.7 h
[11]
  AUC(0-t): 2540 ± 280 ng·h/mL
  AUC(0-inf): 3650 ± 820 ng·h/mL
  Cmax: 1220 ± 80 ng/mL
  MRT last: 3.28 ± 0.5 h
  MRT inf: 52.6 ± 53.8 h
  half-life: 8.08 ± 1.67 h
[…], oral SN + AS + GU extract […]
  half-life: 7.95 ± 2.46 h
